# According to patent publication US20260262643A1, “HERBICIDAL BENZOXAZINES” (FMC CORPORATION, priority 2022, published 2026):
# Tests used:
# blackgrass [1] = experiment: Test C preemergence; format: in vivo, Alopecurus myosuroides
# Procedure, shortened: (§1)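 Visual injury ratings on a 0–100 scale (100 = complete control) were made against untreated controls 10 days after treatment in the greenhouse. Compounds, formulated with surfactant in non-phytotoxic solvent, were sprayed on soil preemergence or onto one- to two-leaf plants 2–10 cm tall postemergence.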
# soybean [2] = experiment: Test C postemergence; format: in vivo, Glycine max; conditions: 10 days, 0 to 100 scale (0 no effect, 100 complete control)
# Procedure, shortened: as §1
# kochia [3] = experiment: Test C postemergence; format: in vivo, Bassia scoparia; conditions: 10 days, 0 to 100 scale (0 no effect, 100 complete control)
# Procedure, shortened: as §1
# galium = experiment: Test C postemergence; format: in vivo, Galium aparine; conditions: 10 days, 0 to 100 scale (0 no effect, 100 complete control)
# Procedure, shortened: as §1
# pigweed, palmer [4] = experiment: Test C preemergence; format: in vivo, Amaranthus palmeri
# Procedure, shortened: as §1
# oat, wild [5] = experiment: Test C postemergence; format: in vivo, Avena fatua; conditions: 10 days, 0 to 100 scale (0 no effect, 100 complete control)
# Procedure, shortened: as §1
# ryegrass, Italian [6] = experiment: Test C preemergence; format: in vivo, Lolium multiflorum
# Procedure, shortened: as §1
# foxtail, giant [7] = experiment: Test C postemergence; format: in vivo, Setaria faberi; conditions: 10 days, 0 to 100 scale (0 no effect, 100 complete control)
# Description: (§2) Seeds of plant species selected from barnyardgrass (Echinochloa crusgalli), blackgrass (Alopecurus myosuroides), corn (Zea mays), foxtail, giant (giant foxtail, Setaria faberi), green foxtail (Setaria viridis), goosegrass (Eleusine indica), kochia (Bassia scoparia), oat, wild (wild oat, Avena fatua), pigweed, palmer (palmer amaranth, palmer pigweed, Amaranthus palmeri), Pigweed, Redroot (redroot pigweed, Amaranthus retroflexus), ragweed (common ragweed, Ambrosia artemisiifolia), ryegrass, Italian ([…] ryegrass, Lolium multiflorum), soybean (Glycine max), and wheat (Triticum aestivum) were planted into a blend of loam soil and sand and treated preemergence with a directed soil spray using test chemicals formulated in a non-phytotoxic solvent mixture which included a surfactant. At the same time, plants selected from these crops and weed species and also galium (catchweed bedstraw, Galium aparine) and horseweed (Erigeron canadensis) were planted in pots containing the same blend of loam soil and sand and treated with postemergence applications of test chemicals formulated in the same manner. Plants ranged in height from 2 to 10 cm and were in the one- to two-leaf stage for the postemergence treatment. Treated plants and untreated controls were maintained in a greenhouse for 10 days, after which time all treated plants were compared to untreated controls and visually evaluated for injury. Plant response ratings, summarized in Table C, are based on a 0 to 100 scale where 0 is no effect and 100 is complete control. A dash (-) response means no test result.
# ragweed [8] = experiment: Test C preemergence; format: in vivo, Ambrosia artemisiifolia
# Procedure, shortened: as §1
# wheat [9] = experiment: Test C postemergence; format: in vivo, Triticum aestivum; conditions: 10 days, 0 to 100 scale (0 no effect, 100 complete control)
# Procedure, shortened: as §1
# soybean [10] = experiment: Test C preemergence; format: in vivo, Glycine max
# Procedure, shortened: as §1
# kochia [11] = experiment: Test C preemergence; format: in vivo, Bassia scoparia
# Procedure, shortened: as §1
# wheat [12] = experiment: Test C preemergence; format: in vivo, Triticum aestivum
# Procedure, shortened: as §1
# barnyardgrass [13] = experiment: Test D flooded paddy test; format: in vivo, Echinochloa crus-galli; conditions: 250 g ai/ha, applied to paddy water, visual rating after 13 to 14 days, scale 0 to 100 (0 no effect, 100 complete control)
# Procedure, shortened: (§3)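 Compounds go straight into paddy water over 2-leaf plants in pots flooded to 3 cm. Greenhouse holding lasts 13 to 14 days. Injury is scored by eye against controls from 0 (none) to 100 (complete control).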
# horseweed = experiment: Test C postemergence; format: in vivo, Erigeron canadensis; conditions: 10 days, 0 to 100 scale (0 no effect, 100 complete control)
# Procedure, shortened: as §1
# oat, wild [14] = experiment: Test C preemergence; format: in vivo, Avena fatua
# Procedure, shortened: as §1
# pigweed, palmer [15] = experiment: Test C postemergence; format: in vivo, Amaranthus palmeri; conditions: 10 days, 0 to 100 scale (0 no effect, 100 complete control)
# Procedure, shortened: as §1
# ragweed [16] = experiment: Test C postemergence; format: in vivo, Ambrosia artemisiifolia; conditions: 10 days, 0 to 100 scale (0 no effect, 100 complete control)
# Procedure, shortened: as §1
# ryegrass, Italian [17] = experiment: Test C postemergence; format: in vivo, Lolium multiflorum; conditions: 10 days, 0 to 100 scale (0 no effect, 100 complete control)
# Procedure, shortened: as §1
# barnyardgrass [18] = experiment: Test C preemergence; format: in vivo, Echinochloa crusgalli
# Procedure, shortened: as §1
# ducksalad = experiment: Test D flooded paddy test; format: in vivo, Heteranthera limosa; conditions: 250 g ai/ha, applied to paddy water, visual rating after 13 to 14 days, scale 0 to 100 (0 no effect, 100 complete control)
# Procedure, shortened: as §3
# barnyardgrass [19] = experiment: Test C postemergence; format: in vivo, Echinochloa crusgalli; conditions: 10 days, 0 to 100 scale (0 no effect, 100 complete control)
# Procedure, shortened: as §1
# corn = experiment: Test C postemergence; format: in vivo, Zea mays; conditions: 10 days, 0 to 100 scale (0 no effect, 100 complete control)
# Procedure, shortened: as §1
# blackgrass [20] = experiment: Test C postemergence; format: in vivo, Alopecurus myosuroides; conditions: 10 days, 0 to 100 scale (0 no effect, 100 complete control)
# Procedure, shortened: as §1
# foxtail, giant [21] = experiment: Test C preemergence; format: in vivo, Setaria faberi
# Description: as §2
# sedge, umbrella = experiment: Test D flooded paddy test; format: in vivo, Cyperus difformis; conditions: 250 g ai/ha, applied to paddy water, visual rating after 13 to 14 days, scale 0 to 100 (0 no effect, 100 complete control)
# Procedure, shortened: as §3
# rice = experiment: Test D flooded paddy test; format: in vivo, Oryza sativa; conditions: 250 g ai/ha, applied to paddy water, visual rating after 13 to 14 days, scale 0 to 100 (0 no effect, 100 complete control)
# Procedure, shortened: as §3
# [22] = 500 g ai/ha, preemergence, 0 to 100 scale (0 no effect, 100 complete control)
# [23] = Preemergence, 125 g ai/ha, 0 to 100 scale, 0 no effect, 100 complete control
compound,measurement,setting,value
COc1ccc(-n2cnc(C3CCC3)n2)cc1C(=O)N1C[C@H](C)Oc2c(Cl)cccc21 [Compound 323],Blackgrass plant response rating,blackgrass [1]; [22],80
same,"Plant response rating, Blackgrass",blackgrass [1]; [23],70
same,"Plant response rating, Soybean","soybean [2]; 500 g ai/ha, postemergence",100
same,"Plant response rating, Soybean","soybean [2]; Postemergence, 125 g ai/ha",100
same,"Plant response rating, Kochia","kochia [3]; 500 g ai/ha, postemergence",90
same,"Plant response rating, Kochia","kochia [3]; Postemergence, 125 g ai/ha",90
same,"Plant response rating, Galium","galium; 500 g ai/ha, postemergence",100
same,"Plant response rating, Galium","galium; Postemergence, 125 g ai/ha",100
same,"Pigweed, Palmer plant response rating","pigweed, palmer [4]; [22]",100
same,"Plant response rating, Pigweed, Palmer","pigweed, palmer [4]; [23]",100
same,"Plant response rating, Oat, Wild","oat, wild [5]; 500 g ai/ha, postemergence",20
same,"Plant response rating, Oat, Wild","oat, wild [5]; Postemergence, 125 g ai/ha",20
same,"Ryegrass, Italian plant response rating","ryegrass, Italian [6]; [22]",80
same,"Plant response rating, Ryegrass, Italian","ryegrass, Italian [6]; [23]",70
same,"Plant response rating, Foxtail, Giant","foxtail, giant [7]; 500 g ai/ha, postemergence",90
same,"Plant response rating, Foxtail, Giant","foxtail, giant [7]; Postemergence, 125 g ai/ha",20
same,Ragweed plant response rating,ragweed [8]; [22],100
same,"Plant response rating, Ragweed",ragweed [8]; [23],30
same,"Plant response rating, Wheat","wheat [9]; 500 g ai/ha, postemergence",20
same,"Plant response rating, Wheat","wheat [9]; Postemergence, 125 g ai/ha",20
same,Soybean plant response rating,soybean [10]; [22],80
same,"Plant response rating, Soybean",soybean [10]; [23],50
same,Kochia plant response rating,kochia [11]; [22],100
same,"Plant response rating, Kochia",kochia [11]; [23],90
same,Wheat plant response rating,wheat [12]; [22],80
same,"Plant response rating, Wheat",wheat [12]; [23],60
same,"Plant response rating, Barnyardgrass (Flood)",barnyardgrass [13],30
same,"Plant response rating, Horseweed","horseweed; 500 g ai/ha, postemergence",40
same,"Plant response rating, Horseweed","horseweed; Postemergence, 125 g ai/ha",30
same,"Oat, Wild plant response rating","oat, wild [14]; [22]",70
same,"Plant response rating, Oat, Wild","oat, wild [14]; [23]",20
same,"Plant response rating, Pigweed, Palmer","pigweed, palmer [15]; 500 g ai/ha, postemergence",100
same,"Plant response rating, Pigweed, Palmer","pigweed, palmer [15]; Postemergence, 125 g ai/ha",80
same,"Plant response rating, Ragweed","ragweed [16]; 500 g ai/ha, postemergence",70
same,"Plant response rating, Ragweed","ragweed [16]; Postemergence, 125 g ai/ha",60
same,"Plant response rating, Ryegrass, Italian","ryegrass, Italian [17]; 500 g ai/ha, postemergence",60
same,"Plant response rating, Ryegrass, Italian","ryegrass, Italian [17]; Postemergence, 125 g ai/ha",10
same,Barnyardgrass plant response rating,barnyardgrass [18]; [22],100
same,"Plant response rating, Barnyardgrass",barnyardgrass [18]; [23],70
same,"Plant response rating, Ducksalad (Flood)",ducksalad,30
same,"Plant response rating, Barnyardgrass","barnyardgrass [19]; 500 g ai/ha, postemergence",60
same,"Plant response rating, Barnyardgrass","barnyardgrass [19]; Postemergence, 125 g ai/ha",30
same,"Plant response rating, Corn","corn; 500 g ai/ha, postemergence",50
same,"Plant response rating, Corn","corn; Postemergence, 125 g ai/ha",10
same,"Plant response rating, Blackgrass","blackgrass [20]; 500 g ai/ha, postemergence",90
same,"Plant response rating, Blackgrass","blackgrass [20]; Postemergence, 125 g ai/ha",50
same,"Foxtail, Giant plant response rating","foxtail, giant [21]; [22]",100
same,"Plant response rating, Foxtail, Giant","foxtail, giant [21]; [23]",90
same,"Plant response rating, Sedge, Umbrella (Flood)","sedge, umbrella",70
same,"Plant response rating, Rice (Flood)",rice,0
